US12486294B2, “Radioisotope labeled compound for imaging or treatment of prostate cancer” (SEOUL NATIONAL UNIVERSITY R&DB FOUNDATION, priority 2019, dated 2025)
pKd: −log10 of the molar value.

What was measured:
[1] = test system: PSMA-targeted 22Rv1 tumor; experiment: In vivo distribution test in cancer transplantation animals; set-up: species or system BALB/c male nude mice; conditions: for intake when PSMA was blocked with PMPA / tissue with highest intake: summary of Tables 2 and 3
Method: Specifically, 0.1 mL of RPMI1640 culture medium containing 5×10^6 22 Rv1 cells was subcutaneously injected into the left flank of a 4-week-old male BALB/c nude mouse. After 2 to 3 weeks, the present inventors confirmed that the tumor tissue had reached an appropriate size and used it in the experiment. For animal injection, [^99mTc]Tc-15 prepared in Example 3 and [^99mTc]Tc-16 prepared in Example 4 were each diluted in saline for injection to a concentration of 0.74 MBq/100 μL. Each of these was injected into the tail vein of the mice transplanted with cancer cells, and after 1 hour and 4 hours, cancer, blood, muscle, heart. Lung, liver, spleen, stomach, small intestine, kidney, bone, and the like were collected and their weight and radioactivity were measured.

[2] = biological target: PSMA (Homo sapiens, UniProt Q04609); conditions: 22Rv1 cells, 1 hour at 37° C., non-specific binding with 250 μM PMPA, nonlinear regression
PSMA, sequence (Q04609 whole entry): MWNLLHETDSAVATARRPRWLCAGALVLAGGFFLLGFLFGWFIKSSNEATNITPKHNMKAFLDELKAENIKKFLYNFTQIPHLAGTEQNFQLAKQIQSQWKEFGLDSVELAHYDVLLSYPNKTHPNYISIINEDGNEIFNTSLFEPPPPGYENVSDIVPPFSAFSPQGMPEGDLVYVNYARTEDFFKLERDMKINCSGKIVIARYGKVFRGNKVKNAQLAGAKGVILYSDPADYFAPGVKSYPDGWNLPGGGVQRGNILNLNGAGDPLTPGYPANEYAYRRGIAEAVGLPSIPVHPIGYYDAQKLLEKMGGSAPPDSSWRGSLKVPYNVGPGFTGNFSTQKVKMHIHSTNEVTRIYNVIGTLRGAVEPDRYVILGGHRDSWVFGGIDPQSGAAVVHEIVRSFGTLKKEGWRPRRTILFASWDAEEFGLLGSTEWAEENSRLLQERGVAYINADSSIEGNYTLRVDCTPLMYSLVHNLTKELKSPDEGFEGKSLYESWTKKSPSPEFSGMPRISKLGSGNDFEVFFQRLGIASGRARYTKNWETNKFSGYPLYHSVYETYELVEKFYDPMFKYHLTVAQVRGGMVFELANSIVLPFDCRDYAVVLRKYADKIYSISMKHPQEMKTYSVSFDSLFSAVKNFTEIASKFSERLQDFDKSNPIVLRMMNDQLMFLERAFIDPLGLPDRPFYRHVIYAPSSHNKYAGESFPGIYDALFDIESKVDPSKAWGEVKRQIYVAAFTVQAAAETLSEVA
Method: The PSMA-positive prostate cancer cell line 22Rv1 was placed in a 24-well plate at the density of 1×10^5 cells/well, followed by culture in a 37° C., 5% CO2 incubator for 24 hours. […] 0.5 mL of the diluted solution was taken and put into cultured cells and incubated in a 37° C., 5% CO2 incubator for 1 hour. After removing the culture medium, the cells were washed twice with fresh culture medium, 1 mL of 0.5% sodium dodecyl sulfate (SDS) dissolved in phosphate buffered saline was added thereto, gently shaken to dissolve, and then transferred to a 5 mL disposable plastic test tube. The radioactivity of the tube was measured using a gamma counter. […] Specific binding was obtained by subtracting non-specific binding from total binding, and a saturation curve was drawn. […] From these saturation curves, the dissociation constant, Kd, was calculated by nonlinear regression using GraphPad Prism 7 program.

[3] = test system: PSMA-expressing 22Rv1 tumor; experiment: SPECT imaging in 22Rv1 cell-transplanted mice; assay type: in vivo, BALB/c nude mouse; conditions: for tumor intake in SPECT image with PSMA blocked: MIP-1072 injected to selectively block PSMA; for tumor intake in SPECT image: intravenous injection; for distribution observed in SPECT image: 1 hour and 3 hours
Method: Specifically, 0.1 mL of RPMI1640 culture medium containing 5×10^6 22 Rv1 cells was subcutaneously injected into the right back of a 4-week-old male BALE/c nude mouse. After 2 to 3 weeks, the present inventors confirmed that the tumor tissue had reached an appropriate size and used it in the experiment. For animal injection, [^99mTc]Tc-15 and [^99mTc]Tc-16 were each diluted in saline for injection to a concentration of 10.2 MBq/100 μL. […]

[4] = Stability test in human serum; assay type: in vitro ADME; conditions: 36.5° C., after 2 hours
Method: The stability test in human serum is to test the stability when it comes into contact with human serum after administration to the human body, and the stability in the body is partly tested in vitro.
(§1) In order to examine the stability of [^99mTc]Tc-15 according to the present invention in human serum, 3.7 MBq of [^99mTc]Tc-15 (100 μL) prepared in Example 3 was added to 1 mL of human serum, mixed well, and then cultured at 36.5° C. with stirring. After 2 hours, the reaction mixture was analyzed by ITLC.
as §1, with “of [^99mTc]Tc-16” for “of [^99mTc]Tc-15”, “Example 4” for “Example 3”

[5] = 1 h Blockade, co-injection of 2-PMPA (100 μg)
[6] = 4 h Blockade, co-injection of 2-PMPA (100 μg)

[99Tc+].[C-]#[N+]CCC(=O)NCCCCCC(=O)NCCCCC(NC(=O)N[C@@H](CCC(=O)O)C(=O)O)C(=O)O.[C-]#[N+]CCC(=O)NCCCCCC(=O)NCCCCC(NC(=O)N[C@@H](CCC(=O)O)C(=O)O)C(=O)O.[C-]#[N+]CCC(=O)NCCCCCC(=O)NCCCCC(NC(=O)N[C@@H](CCC(=O)O)C(=O)O)C(=O)O.[C-]#[O+].[C-]#[O+].[C-]#[O+] (some centres unmarked) [[^99mTc]Tc-15]
In vivo distribution, Blood ([1]; 1 h): 0.60 % ID/g
In vivo distribution, Bone ([1]; 1 h): 0.34 % ID/g
In vivo distribution, Heart ([1]; 1 h): 0.22 % ID/g
In vivo distribution, Intestine ([1]; 1 h): 0.78 % ID/g
In vivo distribution, Kidney ([1]; 1 h): 59.59 % ID/g
In vivo distribution, Liver ([1]; 1 h): 0.94 % ID/g
In vivo distribution, Lung ([1]; 1 h): 0.64 % ID/g
In vivo distribution, Muscle ([1]; 1 h): 0.17 % ID/g
In vivo distribution, Spleen ([1]; 1 h): 0.90 % ID/g
In vivo distribution, Stomach ([1]; 1 h): 0.31 % ID/g
In vivo distribution, Tumor ([1]; 1 h): 1.48 % ID/g
Tumor/blood ([1]; 1 h): 2.5
Tumor/kidney ([1]; 1 h): 0.02
Tumor/liver ([1]; 1 h): 1.57
Tumor/muscle ([1]; 1 h): 8.5
In vivo distribution, Blood [1, 5]: 0.52 % ID/g
In vivo distribution, Bone [1, 5]: 0.26 % ID/g
In vivo distribution, Heart [1, 5]: 0.16 % ID/g
In vivo distribution, Intestine [1, 5]: 0.55 % ID/g
In vivo distribution, Kidney [1, 5]: 4.22 % ID/g
In vivo distribution, Liver [1, 5]: 0.84 % ID/g
In vivo distribution, Lung [1, 5]: 0.61 % ID/g
In vivo distribution, Muscle [1, 5]: 0.11 % ID/g
In vivo distribution, Spleen [1, 5]: 0.15 % ID/g
In vivo distribution, Stomach [1, 5]: 0.17 % ID/g
In vivo distribution, Tumor [1, 5]: 0.38 % ID/g
Tumor/blood [1, 5]: 0.73
Tumor/kidney [1, 5]: 0.09
Tumor/liver [1, 5]: 0.45
Tumor/muscle [1, 5]: 3.5
In vivo distribution, Blood ([1]; 4 h): 0.31 % ID/g
In vivo distribution, Bone ([1]; 4 h): 0.16 % ID/g
In vivo distribution, Heart ([1]; 4 h): 0.12 % ID/g
In vivo distribution, Intestine ([1]; 4 h): 0.81 % ID/g
In vivo distribution, Kidney ([1]; 4 h): 13.72 % ID/g
In vivo distribution, Liver ([1]; 4 h): 0.85 % ID/g
In vivo distribution, Lung ([1]; 4 h): 0.30 % ID/g
In vivo distribution, Muscle ([1]; 4 h): 0.08 % ID/g
In vivo distribution, Spleen ([1]; 4 h): 0.26 % ID/g
In vivo distribution, Stomach ([1]; 4 h): 0.15 % ID/g
In vivo distribution, Tumor ([1]; 4 h): 0.81 % ID/g
Tumor/blood ([1]; 4 h): 2.6
Tumor/kidney ([1]; 4 h): 0.06
Tumor/liver ([1]; 4 h): 0.96
Tumor/muscle ([1]; 4 h): 10.4
In vivo distribution, Blood [1, 6]: 0.31 % ID/g
In vivo distribution, Bone [1, 6]: 0.20 % ID/g
In vivo distribution, Heart [1, 6]: 0.10 % ID/g
In vivo distribution, Intestine [1, 6]: 0.97 % ID/g
In vivo distribution, Kidney [1, 6]: 1.44 % ID/g
In vivo distribution, Liver [1, 6]: 0.84 % ID/g
In vivo distribution, Lung [1, 6]: 0.30 % ID/g
In vivo distribution, Muscle [1, 6]: 0.08 % ID/g
In vivo distribution, Spleen [1, 6]: 0.16 % ID/g
In vivo distribution, Stomach [1, 6]: 0.14 % ID/g
In vivo distribution, Tumor [1, 6]: 0.20 % ID/g
Tumor/blood [1, 6]: 0.65
Tumor/kidney [1, 6]: 0.14
Tumor/liver [1, 6]: 0.24
Tumor/muscle [1, 6]: 2.71
intake when PSMA was blocked with PMPA [1]: the intake was decreased
tissue with highest intake [1]: the highest intake in the kidney
pKd [2]: 8.26
tumor intake in SPECT image with PSMA blocked [3]: tumor intake was not observed
tumor intake in SPECT image ([3]; 1 hour and 3 hours after the injection): no clear intake was observed
distribution observed in SPECT image ([3]; tail vein injection): not only excreted by the kidney but also ingested into the prostate cancer tissue
stability in human serum (ITLC) [4]: most of them were present as [^99mTc]Tc-15 and hardly separated as ^99mTc

[99Tc+].[C-]#[N+]CCC(=O)NCCCCCC(=O)NC(Cc1ccccc1)C(=O)N[C@H](Cc1ccccc1)C(=O)NCCCCCC(=O)NCCCCC(NC(=O)N[C@@H](CCC(=O)O)C(=O)O)C(=O)O.[C-]#[N+]CCC(=O)NCCCCCC(=O)NC(Cc1ccccc1)C(=O)N[C@H](Cc1ccccc1)C(=O)NCCCCCC(=O)NCCCCC(NC(=O)N[C@@H](CCC(=O)O)C(=O)O)C(=O)O.[C-]#[N+]CCC(=O)NCCCCCC(=O)NC(Cc1ccccc1)C(=O)N[C@H](Cc1ccccc1)C(=O)NCCCCCC(=O)NCCCCC(NC(=O)N[C@@H](CCC(=O)O)C(=O)O)C(=O)O.[C-]#[O+].[C-]#[O+].[C-]#[O+] (some centres unmarked) [[^99mTc]Tc-16]
In vivo distribution, Blood ([1]; 1 h): 0.42 % ID/g
In vivo distribution, Bone ([1]; 1 h): 0.63 % ID/g
In vivo distribution, Heart ([1]; 1 h): 0.36 % ID/g
In vivo distribution, Intestine ([1]; 1 h): 0.47 % ID/g
In vivo distribution, Kidney ([1]; 1 h): 24.66 % ID/g
In vivo distribution, Liver ([1]; 1 h): 1.17 % ID/g
In vivo distribution, Lung ([1]; 1 h): 0.52 % ID/g
In vivo distribution, Muscle ([1]; 1 h): 0.13 % ID/g
In vivo distribution, Spleen ([1]; 1 h): 3.40 % ID/g
In vivo distribution, Stomach ([1]; 1 h): 0.85 % ID/g
In vivo distribution, Tail ([1]; 1 h): 0.49 % ID/g
In vivo distribution, Tumor ([1]; 1 h): 1.87 % ID/g
Tumor/blood ([1]; 1 h): 4.43
Tumor/kidney ([1]; 1 h): 0.08
Tumor/liver ([1]; 1 h): 1.60
Tumor/muscle ([1]; 1 h): 14.05
In vivo distribution, Blood [1, 5]: 0.75 % ID/g
In vivo distribution, Bone [1, 5]: 1.16 % ID/g
In vivo distribution, Heart [1, 5]: 0.48 % ID/g
In vivo distribution, Intestine [1, 5]: 0.85 % ID/g
In vivo distribution, Kidney [1, 5]: 5.66 % ID/g
In vivo distribution, Liver [1, 5]: 1.95 % ID/g
In vivo distribution, Lung [1, 5]: 1.63 % ID/g
In vivo distribution, Muscle [1, 5]: 0.22 % ID/g
In vivo distribution, Spleen [1, 5]: 0.40 % ID/g
In vivo distribution, Stomach [1, 5]: 1.04 % ID/g
In vivo distribution, Tail [1, 5]: 1.18 % ID/g
In vivo distribution, Tumor [1, 5]: 0.45 % ID/g
Tumor/blood [1, 5]: 0.61
Tumor/kidney [1, 5]: 0.08
Tumor/liver [1, 5]: 0.23
Tumor/muscle [1, 5]: 2.16
In vivo distribution, Blood ([1]; 4 h): 0.17 % ID/g
In vivo distribution, Bone ([1]; 4 h): 1.04 % ID/g
In vivo distribution, Heart ([1]; 4 h): 0.25 % ID/g
In vivo distribution, Intestine ([1]; 4 h): 1.48 % ID/g
In vivo distribution, Kidney ([1]; 4 h): 39.65 % ID/g
In vivo distribution, Liver ([1]; 4 h): 0.69 % ID/g
In vivo distribution, Lung ([1]; 4 h): 0.36 % ID/g
In vivo distribution, Muscle ([1]; 4 h): 0.07 % ID/g
In vivo distribution, Spleen ([1]; 4 h): 3.44 % ID/g
In vivo distribution, Stomach ([1]; 4 h): 0.42 % ID/g
In vivo distribution, Tail ([1]; 4 h): 0.48 % ID/g
In vivo distribution, Tumor ([1]; 4 h): 2.83 % ID/g
Tumor/blood ([1]; 4 h): 16.70
Tumor/kidney ([1]; 4 h): 0.07
Tumor/liver ([1]; 4 h): 4.17
Tumor/muscle ([1]; 4 h): 40.43
In vivo distribution, Blood [1, 6]: 0.15 % ID/g
In vivo distribution, Bone [1, 6]: 0.47 % ID/g
In vivo distribution, Heart [1, 6]: 0.11 % ID/g
In vivo distribution, Intestine [1, 6]: 1.26 % ID/g
In vivo distribution, Kidney [1, 6]: 3.59 % ID/g
In vivo distribution, Liver [1, 6]: 1.33 % ID/g
In vivo distribution, Lung [1, 6]: 0.45 % ID/g
In vivo distribution, Muscle [1, 6]: 0.05 % ID/g
In vivo distribution, Spleen [1, 6]: 0.20 % ID/g
In vivo distribution, Stomach [1, 6]: 0.23 % ID/g
In vivo distribution, Tail [1, 6]: 0.53 % ID/g
In vivo distribution, Tumor [1, 6]: 0.39 % ID/g
Tumor/blood [1, 6]: 2.67
Tumor/kidney [1, 6]: 0.11
Tumor/liver [1, 6]: 0.30
Tumor/muscle [1, 6]: 8.44
intake when PSMA was blocked with PMPA [1]: the intake was decreased
tissue with highest intake [1]: the highest intake in the kidney
pKd [2]: 9.70
tumor intake in SPECT image with PSMA blocked [3]: tumor intake was not observed
tumor intake in SPECT image ([3]; 1 hour after the injection): the increase in radioactivity was evident
tumor intake in SPECT image ([3]; 4 hours after the injection): the intake was more distinct
distribution observed in SPECT image ([3]; tail vein injection): not only excreted by the kidney but also ingested into the prostate cancer tissue
intake in prostate cancer in SPECT image, compared between the two labeled compounds ([3]; tail vein injection, FIGS. 4A and 5A): higher intake in prostate cancer
stability in human serum (ITLC) [4]: most of them were present as [^99mTc]Tc-16 and hardly separated as ^99mTc
